Test results reported in paper PMC11784839, “Monoaminergic neurotransmitters are bimodal effectors of tau aggregation” (Science Advances, 2025).

Molecular target: tau (Homo sapiens, UniProt P10636)
Assay: MCE Phenols Library screening, tau biosensor cell seeding assay (AvZ)
Format: cell-based
Conditions: for Z repl 1 / Z Repl 2: Z score; for Z repl 1 / raw data 1: replicate 1; for Z Repl 2 / raw data 2: replicate 2; for AvZ (average z score of seeding, SDs from the mean level of seeding): 10 μM phenol in cell cultures, AD brain homogenate preincubated 16 hours, two biological replicates, positive = catalyzes seeding, negative = inhibits
[1] = average Z score of the two replicates, MCE Phenols Library screen
[2] = average puncta of the two replicates
[3] = average Z score of the two replicates, tau seeding
[4] = average Z score of two replicates, Phenols Library screen

tau, sequence (P10636 623-695 limits assumed): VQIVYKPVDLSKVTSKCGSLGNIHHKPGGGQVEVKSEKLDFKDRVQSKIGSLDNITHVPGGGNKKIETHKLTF

Z repl 1	Z Repl 2	av Z [1]	av puncta [2]	raw data 1 (raw puncta)	raw data 2 (raw puncta)	raw data 1 (puncta)	raw data 2 (puncta)	av Z [3]	av puncta (average of raw data 1 and 2)	AvZ (average z score of seeding, SDs from the mean level of seeding)	av Z [4]	Compound	av Z (average Z score of the two replicates, tau biosensor seeding, MCE Phenols Library screen)
-0.369	-0.502	-0.435	14662.2	21923.2	7401.19							COc1cc(CCO[C@@H]2O[C@H](CO[C@@H]3O[C@H](CO)[C@@H](O)[C@H](O)[C@H]3O)[C@@H](OC(=O)/C=C/c3ccc(O)c(O)c3)[C@H](O[C@@H]3O[C@@H](C)[C@H](O)[C@@H](O)[C@H]3O)[C@H]2O)ccc1O [Cistanoside A]	
-0.088	-0.968	-0.528	13858.4			25288.8	2427.91					C[C@@H]1O[C@@H](OC[C@H]2O[C@@H](Oc3c(-c4ccc(O)cc4)oc4cc(O)cc(O)c4c3=O)[C@H](O[C@@H]3O[C@@H](C)[C@H](O)[C@@H](O)[C@H]3O)[C@@H](O)[C@@H]2O)[C@H](O)[C@H](O)[C@H]1O [Clitorin]	
-0.17	-1.084	-0.627	12750.8			24311.1	1190.55					O=C(/C=C/c1ccc(O)c(O)c1)N[C@@H](Cc1ccc(O)c(O)c1)C(=O)O [Clovamide]	
0.366	0.999					30747.2	23431.8	0.683	27089.5			COc1ccc2c(c1)OC[C@@H](c1cc(O)c(OC)c(OC)c1O)C2 [Colutehydroquinone]	
-0.533	-0.238	-0.385	15089	19953.5	10224.5							COc1cc(O)c2c(=O)c(O[C@@H]3O[C@H](CO)[C@@H](O)[C@H](O)[C@H]3O)c(-c3ccc(O[C@@H]4O[C@H](CO)[C@@H](O)[C@H](O)[C@H]4O)cc3)oc2c1 [Complanatuside]	
0.738	0.319					35213	16173.9		25693.5	0.529		COc1cc(/C=C/CO)ccc1O [Coniferyl alcohol]	
0.368	-0.434					30768	8130.42		19449.2		-0.033	COc1cc(/C=C/COC(=O)/C=C/c2ccc(O)c(OC)c2)ccc1O [Coniferyl ferulate]	
-1.842	-1.134	-1.488				4240.16	650.661		2445.41			O=C(O[C@@H]1O[C@@H]2COC(=O)c3cc(O)c(O)c(O)c3-c3c(cc(O)c(O)c3O)C(=O)O[C@H]([C@H]1O)[C@@H]2O)c1cc(O)c(O)c(O)c1 [Corilagin]	
0.054	-0.445					26996.8	8008.18		17502.5		-0.196	CC(C)=CCC/C(C)=C/Cc1cc(-c2coc3cc(O)ccc3c2=O)ccc1O [Corylifol A]	
0.295	-0.524					29892.4	7171.93		18532.2		-0.114	COc1cc2c(cc1O)CCN1Cc3c(ccc(OC)c3OC)CC21 (stereo not shown) [Corypalmine]	
-0.018	-0.542	-0.28	16558.4	26137.6	6979.18							O=c1oc2cc(O)ccc2c2oc3cc(O)ccc3c12 [Coumestrol]	
0.313	1.224					30100.9	25838.9		27969.9	0.768		COc1cc(C)ccc1O [Creosol]	
0.935	0.427					37574	17325	0.681	27449.5			O=C(/C=C/c1ccc(O)c(O)c1)O[C@H]1[C@H](O)C[C@](O)(C(=O)O)C[C@H]1O [Cryptochlorogenic acid]	
-0.772	0.136	-0.318	15649.1	17078.1	14220.1							COc1cccc(OC)c1C(=O)OCc1cc(O)ccc1O[C@@H]1O[C@H](CO)[C@@H](O)[C@H](O)[C@H]1O [Curculigoside]	
			16957.6	27554	6361.09							O=c1c(-c2ccc(O)cc2)coc2cc(O)ccc12 [Daidzein]	
-1.052	-0.634	-0.843				13720.6	5995.43		9858.03			O=C1c2cccc(O)c2C(=O)c2c(O)cccc21 [Danthron]	
-0.257	-0.157	-0.207	17173.7	23258.6	11088.8							COc1cc2cc(Oc3ccc4ccc(=O)oc4c3)c(=O)oc2cc1O [Daphnoretin]	
0.835	0.419					36377.1	17242.2	0.627	26809.6			C/C=C/c1cc(OC)c2c(c1)C(C)C(c1ccc(O)c(OC)c1)O2 (stereo not shown) [Dehydrodiisoeugenol]	
-0.088	-0.204					25297.3	10588.9		17943.1		-0.146	COc1ccc2cc3[n+](cc2c1OC)CCc1cc(O)c(O)cc1-3 [Demethyleneberberine]	
0.557	-0.129					33032.9	11386.3	0.214	22209.6			Oc1ccc(OC2CCCCO2)cc1 (stereo not shown) [Deoxyarbutin]	
0.811	-0.238					36082.1	10219.6	0.286	23150.9			COc1ccc(/C=C/c2cc(O)cc(O[C@@H]3O[C@H](CO)[C@@H](O)[C@H](O)[C@H]3O)c2)cc1 [Desoxyrhaponticin]	
0.855	0.348					36614.6	16482.8	0.602	26548.7			COc1cc(-c2coc3cc4c(c(O)c3c2=O)OCO4)cc(O)c1OC [Dichotomitin]	
0.014	-0.922		14716.5	26515.6	2917.33					-0.454		O=C(O)CCc1ccc(O)c(O)c1 [Dihydrocaffeic acid]	

Compound	Z repl 1	Z Repl 2	av Z [1]	av puncta [2]	raw data 1 (raw puncta)	raw data 2 (raw puncta)	raw data 1 (puncta)	raw data 2 (puncta)	av Z [3]	av puncta (average of raw data 1 and 2)	AvZ (average z score of seeding, SDs from the mean level of seeding)	av Z [4]	av Z (average Z score of the two replicates, tau biosensor seeding, MCE Phenols Library screen)
COc1cc2c(cc1O)-c1cc3ccc(OC)c(OC)c3c[n+]1CC2 [Columbamine]	0.655	0.636					34211.5	19562.6	0.646	26887.1			
OC[C@H]1O[C@@H](Oc2cc3c(O)cc(O)cc3[o+]c2-c2ccc(O)c(O)c2)[C@H](O[C@@H]2OC[C@@H](O)[C@H](O)[C@H]2O)[C@@H](O)[C@@H]1O.[Cl-] [Cyanidin 3-sambubioside (chloride)]	-0.124	-1.008	-0.566	13432.8			24866.3	1999.21					
Oc1cc(O)c2cc(O)c(-c3ccc(O)c(O)c3)[o+]c2c1.[Cl-] [Cyanidin (Chloride)]	-1.789	-1.05	-1.419				4876.54	1551.23		3213.88			
OC[C@H]1O[C@@H](Oc2cc3c(O)cc(O)cc3[o+]c2-c2ccc(O)c(O)c2)[C@H](O)[C@@H](O)[C@H]1O.[Cl-] [Cyanidin-3-O-galactoside (chloride)]	-1.814	-0.88	-1.347				4573.89	3370.84		3972.36			
O=C([O-])C(O)Cc1ccc(O)c(O)c1.[Na+] (stereo not shown) [Danshensu (sodium salt)]	-0.172	-0.817		14160.8			24282	4039.49			-0.495		
O=C(O)[C@H](O)Cc1ccc(O)c(O)c1 [Danshensu]	-0.37	-1.076		11586.7			21904.2	1269.24			-0.723		
OC[C@H]1O[C@@H](Oc2cc3c(O)cc(O)cc3[o+]c2-c2cc(O)c(O)c(O)c2)[C@H](O)[C@@H](O)[C@@H]1O.[Cl-] [Delphinidin 3-glucoside (chloride)]	-1.229		-1.2				11598.4	259.098		5928.77			
Oc1cc(O)c2cc(O)c(-c3cc(O)c(O)c(O)c3)[o+]c2c1.[Cl-] [Delphinidin (chloride)]		-0.674	-1.417				426.071	5569.91		2997.99			
COc1cc([C@@H]2c3cc4c(cc3C[C@H]3COC(=O)[C@@H]32)OCO4)cc(OC)c1OC [Deoxypodophyllotoxin]	3.44	3.821					67641.6	53571.1		60606.3			3.63
